Marks after values point to notes of the source that are not given here. Primed or numbered codes have the meaning given here. Where no end group is shown, it is not given here. The star is where a group is joined. Ac3‑α‑GalNAc = per-acetylated α-N-acetylgalactosamine (O-glycoside), CC(=O)N[C@@H]1[C@@H](OC(C)=O)[C@@H](OC(C)=O)[C@@H](COC(C)=O)O[C@@H]1*; Ac3‑α‑GalNAc″ = peracetylated alpha-N-acetylgalactosamine, CC(=O)N[C@@H]1[C@@H](OC(C)=O)[C@@H](OC(C)=O)[C@@H](COC(C)=O)O[C@@H]1*; Ac3‑β‑GlcNAc = per-acetylated β-N-acetylglucosamine, CC(=O)N[C@@H]1[C@@H](OC(C)=O)[C@H](OC(C)=O)[C@@H](COC(C)=O)O[C@H]1*; Ac4‑β‑Glc = per-acetylated β-glucose (tetraacetyl), CC(=O)OC[C@H]1O[C@@H](*)[C@H](OC(C)=O)[C@@H](OC(C)=O)[C@@H]1OC(C)=O; Ac4‑α‑Man = per-acetylated α-mannose, CC(=O)OC[C@H]1O[C@H](*)[C@@H](OC(C)=O)[C@@H](OC(C)=O)[C@@H]1OC(C)=O; β‑maltose = OC[C@H]1O[C@H](O[C@H]2[C@H](O)[C@@H](O)[C@H](*)O[C@@H]2CO)[C@H](O)[C@@H](O)[C@@H]1O; αGalNAc = CC(=O)N[C@@H]1[C@@H](O)[C@@H](O)[C@@H](CO)O[C@@H]1*; αMan = OC[C@H]1O[C@H](*)[C@@H](O)[C@@H](O)[C@@H]1O; βGlc = OC[C@H]1O[C@@H](*)[C@H](O)[C@@H](O)[C@@H]1O; βGal = OC[C@H]1O[C@@H](*)[C@H](O)[C@@H](O)[C@H]1O; Palmitoyl = CCCCCCCCCCCCCCCC(=O)*
Tests used:
[1] = test system: Human Dermal Fibroblasts (KMST-6); experiment: ECM ELISA assay: fibronectin secretion by human dermal fibroblasts; type: cell-based; conditions: 5 μM, % compared to control set at 100%, normalized to total protein; for Fibronectin secretion at 48 hours: KMST-6, 48 hours; for Fibronectin Secretion at 72 hours: KMST-6, 72 hours
Procedure: (§1) KMST-6 cells (Japan Health Sciences Foundation, JCRB0433) were seeded at 7,000 cells/ml in 12-well tissue culture treated plates (Falcon, 353043) in complete media. The complete media consisted of the following: MEM/EBSS (Hyclone, SH30024.01), 10% Heat-Inactivated FBS (Gibco, 10082-147), 1% L-Glutamine (Hyclone, SH30031.01), 1% Nucleosides (800 mg/L Adenosine, 850 mg/L Guanidine, 730 mg/L Cytidine, 730 mg/L Uridine and 240 mg/L Thymidine), 1% Penicillin/Streptomycin (HyClone, SV30010), 1% Sodium Pyruvate (HyClone, SH30239.01), 1% Non-Essential Amino Acids (Hyclone, SH30238.01) and 0.04% Gentamicin (Gibco, 15710-064). Cells were grown for 2 days prior to treatments. The media was aspirated and cells were washed with 1×PBS (Fisher, SH30256.01) and treated with 5 μM (1 mL/well) glycopeptides, reference (Pal-KTTKS, CPC Scientific, 822197), and control (DMSO, Fisher, BP231-100) in serum-free media supplemented with 50 μg/mL Sodium Ascorbate (Sigma, A4034) and 80 μg/mL β-Aminopropionate Fumarate (Sigma, A3134). The treated cells were incubated at 37° C. and 5% CO2 for 48 and 72 hours. At each timepoint, media from each treatment was collected and centrifuged at 1500 RPM for 15 minutes at 4° C. The supernatant was collected and stored at −80° C. for extracellular matrix protein quantification. The following kits were used for quantification of ECM proteins: Fibronectin (Takara, MK115) and Elastin (Uscn Life Science Inc., E91337Hu). The cells were harvest and lysed with 250 μL Lysis Buffer (20 mM Tris-HCl (Sigma, T1503), 137 mM NaCl (Sigma, S9888), 2 mM EDTA (Fisher, BP118), 1% IGEPAL (Sigma, 18896), 10% Glycerol (Sigma, G5516), 100 μM PMSF (Fisher, 36978) and 10 μg/mL Leupeptin (Sigma-Aldrich, L2884). They were placed on a container of ice on a plate shaker (Lab-Line Instruments, 3595) for 30 minutes. The lysate was centrifuged at 10,000 g for 5 minutes at 4° C. The supernatant was collected and used for protein quantification (BioRad, 500-0112).
(§2) To determine effects on extracellular matrix protein secretion, 5 μM of individual glycopeptides were incubated with Human Dermal Fibroblasts (KMST-6). The control sample cells were treated with DMSO (Fisher, BP231-100). As described previously, supernatant was collected from treated cells (at two time-points, 48 and 72 hours of treatment) and stored at −80° C. for subsequent extracellular matrix protein quantification using ELISA kits (Fibronectin (Takara, MK115), Elastin (Uscn Life Science Inc., E91337Hu). For the determination of total cellular protein, treated cells were harvested and lysed. The lysate was centrifuged, the supernatant was collected and then used for protein quantification (BioRad, 500-0112). ELISA plates were read on the plate reader (Molecular Devices) at absorbance of 450 nm and SoftMax Pro software was used to compute the μg/ml values of protein of interest derived from the generated 4-parameter fit standard curve. Each μg/ml of protein secreted was normalized to total protein per well. The data was analysed by averaging out normalized values from at least three independent experiments and presenting them as a % compared to control treatment set at 100% (Table 2-5). Statistical significance was performed using One-way ANOVA (p<0.05) where “*” represents statistical significance when compared to control and “#” represents statistical significance when compared to reference. […]

[2] = test system: Human Dermal Fibroblasts (KMST-6); experiment: ECM ELISA assay: elastin secretion by human dermal fibroblasts; type: cell-based; conditions: 5 μM, % compared to control set at 100%, normalized to total protein; for Elastin Secretion at 48 hours: KMST-6, 48 hours; for Elastin Secretion at 72 hours: KMST-6, 72 hours
Procedure: as §1, §2

Row | Substance | Fibronectin secretion at 48 hours [1] | Fibronectin Secretion at 72 hours [1] [%] | Elastin Secretion at 48 hours [2] | Elastin Secretion at 72 hours [2]
1 | Pal-KTTKS(α-GalNAc)-OH (Palmitoyl-KTTKS(αGalNAc)-OH; SMILES CCCCCCCCCCCCCCCC(=O)N[C@@H](CCCCN)C(=O)N[C@H](C(=O)N[C@H](C(=O)N[C@@H](CCCCN)C(=O)N[C@@H](CO[C@H]1O[C@H](CO)[C@H](O)[C@H](O)[C@H]1NC(C)=O)C(=O)O)[C@@H](C)O)[C@@H](C)O; listed as Homo sapiens) [GP002-2] | 95.7% | 90.60 | 143.8% | 127.0%
2 | Pal-KTT(α-GalNAc)KS-OH (Palmitoyl-KTT(αGalNAc)KS-OH; SMILES CCCCCCCCCCCCCCCC(=O)N[C@@H](CCCCN)C(=O)N[C@H](C(=O)N[C@H](C(=O)N[C@@H](CCCCN)C(=O)N[C@@H](CO)C(=O)O)[C@@H](C)O[C@H]1O[C@H](CO)[C@H](O)[C@H](O)[C@H]1NC(C)=O)[C@@H](C)O; listed as Homo sapiens) [GP001-10] | 100.2% | 104.0 | 103.0% | 98.67%
3 | Pal-KT(Ac3-α-GalNAc)-T(Ac3-α-GalNAc)KS-OH (Palmitoyl-KT(Ac3‑α‑GalNAc″)T(Ac3‑α‑GalNAc″)KS-OH; SMILES CCCCCCCCCCCCCCCC(=O)N[C@@H](CCCCN)C(=O)N[C@H](C(=O)N[C@H](C(=O)N[C@@H](CCCCN)C(=O)N[C@@H](CO)C(=O)O)[C@@H](C)O[C@H]1O[C@H](COC(C)=O)[C@H](OC(C)=O)[C@H](OC(C)=O)[C@H]1NC(C)=O)[C@@H](C)O[C@H]1O[C@H](COC(C)=O)[C@H](OC(C)=O)[C@H](OC(C)=O)[C@H]1NC(C)=O; listed as Homo sapiens) [GP001-13] | 114.0% | 94.50 | 123.8% | 131.3%
4 | Pal-N(β-Glc)KTTKS-OH (Palmitoyl-N(βGlc)KTTKS-OH; listed as Homo sapiens) [GP003-8] | 157.2% | 126.0 | 111.3% | 146.5%
5 | Pal-KT(Ac3-α-GalNAc)TKS-OH (Palmitoyl-KT(Ac3‑α‑GalNAc)TKS-OH; SMILES CCCCCCCCCCCCCCCC(=O)N[C@@H](CCCCN)C(=O)N[C@H](C(=O)N[C@H](C(=O)N[C@@H](CCCCN)C(=O)N[C@@H](CO)C(=O)O)[C@@H](C)O)[C@@H](C)O[C@H]1O[C@H](COC(C)=O)[C@H](OC(C)=O)[C@H](OC(C)=O)[C@H]1NC(C)=O; listed as Homo sapiens) [GP001-3] | 163.8* % | 117.4 | 123.3% | 132.5%
6 | Pal-KTTKS(β-Gal)-OH (Palmitoyl-KTTKS(βGal)-OH; SMILES CCCCCCCCCCCCCCCC(=O)N[C@@H](CCCCN)C(=O)N[C@H](C(=O)N[C@H](C(=O)N[C@@H](CCCCN)C(=O)N[C@@H](CO[C@@H]1O[C@H](CO)[C@H](O)[C@H](O)[C@H]1O)C(=O)O)[C@@H](C)O)[C@@H](C)O; listed as Homo sapiens) [GP002-8] | 110.0% | 121.0 | 103.8% | 177.8%
7 | Pal-KT(Ac3-β-GlcNAc)TKS-OH (Palmitoyl-KT(Ac3‑β‑GlcNAc)TKS-OH; SMILES CCCCCCCCCCCCCCCC(=O)N[C@@H](CCCCN)C(=O)N[C@H](C(=O)N[C@H](C(=O)N[C@@H](CCCCN)C(=O)N[C@@H](CO)C(=O)O)[C@@H](C)O)[C@@H](C)O[C@@H]1O[C@H](COC(C)=O)[C@@H](OC(C)=O)[C@H](OC(C)=O)[C@H]1NC(C)=O; listed as Homo sapiens) [GP001-5] | 125.0% | 105.0 | 81.67% | 90.00%
8 | Pal-KTTKS(Ac3-α-GalNAc)-OH (Palmitoyl-KTTKS(Ac3‑α‑GalNAc″)-OH; SMILES CCCCCCCCCCCCCCCC(=O)N[C@@H](CCCCN)C(=O)N[C@H](C(=O)N[C@H](C(=O)N[C@@H](CCCCN)C(=O)N[C@@H](CO[C@H]1O[C@H](COC(C)=O)[C@H](OC(C)=O)[C@H](OC(C)=O)[C@H]1NC(C)=O)C(=O)O)[C@@H](C)O)[C@@H](C)O; listed as Homo sapiens) [GP002-1] | 114.7% | 108.0 | 144.8% | 145.5%
9 | Pal-KT(β-Glc)TKS-OH (Palmitoyl-KT(βGlc)TKS-OH; SMILES CCCCCCCCCCCCCCCC(=O)N[C@@H](CCCCN)C(=O)N[C@H](C(=O)N[C@H](C(=O)N[C@@H](CCCCN)C(=O)N[C@@H](CO)C(=O)O)[C@@H](C)O)[C@@H](C)O[C@@H]1O[C@H](CO)[C@@H](O)[C@H](O)[C@H]1O; listed as Homo sapiens) [GP001-2] | 133.0% | 115.4 | 102.8% | 94.50%
10 | Pal-N(Ac4-β-Glc)KTTKS-OH (Palmitoyl-N(Ac4‑β‑Glc)KTTKS-OH; listed as Homo sapiens) [GP003-7] | 139.8% | 118.5 | 105.0% | 148.2%
11 | Pal-KT(α-Man)TKS-OH (Palmitoyl-KT(αMan)TKS-OH; SMILES CCCCCCCCCCCCCCCC(=O)N[C@@H](CCCCN)C(=O)N[C@H](C(=O)N[C@H](C(=O)N[C@@H](CCCCN)C(=O)N[C@@H](CO)C(=O)O)[C@@H](C)O)[C@@H](C)O[C@H]1O[C@H](CO)[C@@H](O)[C@H](O)[C@@H]1O; listed as Homo sapiens) [GP003-2] | 165.0* % | 110.3 | 121.0% | 160.4%
12 | Dal-KT(β-Mal)TKS-OH (KT(β‑maltose)TKS-OH; not fully specified (N-terminus); printed as Dal-KT(β-Mal)TKS-OH; listed as Homo sapiens) [GP003-10] | 144.5% | 94.70 | 149.5% | 127.6%
13 | Pal-KT(Ac4-α-Man)TKS-OH (Palmitoyl-KT(Ac4‑α‑Man)TKS-OH; SMILES CCCCCCCCCCCCCCCC(=O)N[C@@H](CCCCN)C(=O)N[C@H](C(=O)N[C@H](C(=O)N[C@@H](CCCCN)C(=O)N[C@@H](CO)C(=O)O)[C@@H](C)O)[C@@H](C)O[C@H]1O[C@H](COC(C)=O)[C@@H](OC(C)=O)[C@H](OC(C)=O)[C@@H]1OC(C)=O; listed as Homo sapiens) [GP003-1] | 193.7* % | 125.3 | 464.1* % | 413.6* %
14 | Pal-KT(α-GalNAc)TKS-OH (Palmitoyl-KT(αGalNAc)TKS-OH; SMILES CCCCCCCCCCCCCCCC(=O)N[C@@H](CCCCN)C(=O)N[C@H](C(=O)N[C@H](C(=O)N[C@@H](CCCCN)C(=O)N[C@@H](CO)C(=O)O)[C@@H](C)O)[C@@H](C)O[C@H]1O[C@H](CO)[C@H](O)[C@H](O)[C@H]1NC(C)=O; listed as Homo sapiens) [GP001-4] | 134.2% | 112.5 | 104.5% | 100.0%

From patent US9856290B2, “Glycopeptide compositions and uses thereof” (SUSSEX RESEARCH LABORATORIES INC., priority 2013, dated 2018)
